Converted amounts (≈) assume the structure as drawn. Like-named read-outs stand apart in the source and are kept apart here. Ends that are not written are not given here. Peptide text beside a SMILES is read from it. * marks the point of attachment. Palmitoyl = CCCCCCCCCCCCCCCC(=O)*
What was measured:
[1] = system: Corynebacterium simulans DSM 44415; assay: CFU assay of antimicrobial activity; type: cell-based; conditions: 10 mM NaP, pH 6.0, 0.25% glucose
Protocol: All purified peptides and recombinant proteins were applied using a colony forming unit (CFU) assay in different media. Bacteria were grown to early log-phase in BHI, washed either with 10 mM Na-P, pH 7.4/1% TSB or pH 5.5/1% TSB, or pH 5.5 without TSB or BHI, and adjusted to a concentration of 10^4–10^5 colony forming units (CFU)/ml. For cell number control, 100 µl aliquots were diluted 1:10, 1:100 and 1:1000 and plated in duplicates on BHI agar plates. […]
(§1) Then bacteria were incubated for 2 h at ambient temperature, if not otherwise stated. 10 µl of 0.01% (v/v) acetic acid, added to 100 µl aliquots of the bacteria in the respective medium, served as negative control. From each test, 1:10 and 1:100 dilutions were generated and plated as duplicates of 100 µl aliquots on BHI agar plates. After 16 h incubation at 37 °C, CFU were counted using a colony counter (Bio Kobe, Japan) and expressed as mean of the duplicate estimation to achieve a complete dose-response curve. All experiments were performed at serial dilutions in a concentration range of 100 µg/mL −25 ng/mL for recombinant HRNR fragments and 300 or 150 µg/mL–19 ng/mL for synthetic peptides.

P. aeruginosa ATCC 10145 = conditions: CFU assay, 10 mM NaP
[2] = system: Streptococcus pneumoniae ATCC 33400; assay: CFU assay of antimicrobial activity; type: cell-based; conditions: 10 mM NaP, pH 7.3, 0.25% glucose
Protocol: (§2) All purified peptides and recombinant proteins were applied using a colony forming unit (CFU) assay in different media. Bacteria were grown to early log-phase in BHI, washed either with 10 mM Na-P, pH 7.4/1% TSB or pH 5.5/1% TSB, or pH 5.5 without TSB or BHI, and adjusted to a concentration of 10^4–10^5 colony forming units (CFU)/ml. For cell number control, 100 µl aliquots were diluted 1:10, 1:100 and 1:1000 and plated in duplicates on BHI agar plates. To 100 µl aliquots of the bacteria, suspended in the respective medium (10 mM Na-P buffer pH 7,0–7,4/ 1% (w/v) TSB; […]; 10 mM Na-P buffer pH 7,0–7,4/ 1% (w/v) TSB pH 7,0–7,4/ 0,25% (w/v) glucose; 10 mM Na-P buffer pH 5,5/ 0,25% (w/v) glucose, respectively), 10 µl of a solution of the peptide or protein (two-fold dilutions, from 300 µg/ml or 150 µg/ml down to 19 ng/ml), dissolved in 0.01% (v/v) acetic acid, were added.
as §1

[3] = system: Streptococcus pyogenes ATCC 12344; assay: CFU assay of antimicrobial activity; type: cell-based; conditions: 10 mM NaP, pH 7.3, 0.25% glucose
Protocol: as §2, §1

[4] = system: Prevotella oralis ATCC 33321; assay: CFU assay of antimicrobial activity; type: cell-based; conditions: 10 mM NaP, pH 7.3, 1% TSB
Protocol: All purified peptides and recombinant proteins were applied using a colony forming unit (CFU) assay in different media. Bacteria were grown to early log-phase in BHI, washed either with 10 mM Na-P, pH 7.4/1% TSB or pH 5.5/1% TSB, or pH 5.5 without TSB or BHI, and adjusted to a concentration of 10^4–10^5 colony forming units (CFU)/ml. For cell number control, 100 µl aliquots were diluted 1:10, 1:100 and 1:1000 and plated in duplicates on BHI agar plates. To 100 µl aliquots of the bacteria, suspended in the respective medium (10 mM Na-P buffer pH 7,0–7,4/ 1% (w/v) TSB; 10 mM Na-P buffer pH 5,5/ 1% (w/v) TSB; 10 mM Na-P buffer pH 7,0–7,4/ 1% (w/v) TSB pH 7,0–7,4/ 0,25% (w/v) glucose; […], respectively), 10 µl of a solution of the peptide or protein (two-fold dilutions, from 300 µg/ml or 150 µg/ml down to 19 ng/ml), dissolved in 0.01% (v/v) acetic acid, were added.
as §1

[5] = system: Propionibacterium acnes ATCC 6919; assay: CFU assay of antimicrobial activity; type: cell-based; conditions: 10 mM NaP, pH 7.3, 1% TSB
Protocol: All purified peptides and recombinant proteins were applied using a colony forming unit (CFU) assay in different media. Bacteria were grown to early log-phase in BHI, washed either with 10 mM Na-P, pH 7.4/1% TSB or pH 5.5/1% TSB, or pH 5.5 without TSB or BHI, and adjusted to a concentration of 10^4–10^5 colony forming units (CFU)/ml. For cell number control, 100 µl aliquots were diluted 1:10, 1:100 and 1:1000 and plated in duplicates on BHI agar plates. To 100 µl aliquots of the bacteria, suspended in the respective medium (10 mM Na-P buffer pH 7,0–7,4/ 1% (w/v) TSB; 10 mM Na-P buffer pH 5,5/ 1% (w/v) TSB; 10 mM Na-P buffer pH 7,0–7,4/ 1% (w/v) TSB pH 7,0–7,4/ 0,25% (w/v) glucose; 10 mM Na-P buffer pH 5,5/ 0,25% (w/v) glucose, respectively), 10 µl of a solution of the peptide or protein (two-fold dilutions, from 300 µg/ml or 150 µg/ml down to 19 ng/ml), dissolved in 0.01% (v/v) acetic acid, were added.
as §1

[6] = system: Acinetobacter baumannii ATCC 19606; assay: CO-ADD MIC, broth microdilution (CLSI); type: cell-based; conditions: Mueller–Hinton broth, 5 × 10^5 CFU/mL, 18 h 37 °C, by CO-ADD
Text: (§3) They were defined as the lowest peptide
(§4) Further details of the screening

[7] = system: Pseudomonas aeruginosa ATCC 27853; assay: CO-ADD MIC, broth microdilution (CLSI); type: cell-based; conditions: Mueller–Hinton broth, 5 × 10^5 CFU/mL, 18 h 37 °C, by CO-ADD
Text: as §3, §4

[8] = system: Candida albicans ATCC 90028; assay: CO-ADD MIC, antifungal assay (CLSI); type: cell-based; conditions: Yeast Nitrogen Base broth, 24 h 35 °C, by CO-ADD
Protocol: (§5) Fungi strains were cultured for 3 days on Yeast Extract-Peptone Dextrose (YPD) agar at 30 °C. A yeast suspension of 1 × 10^6 to 5 × 10^6 cells/mL (as determined by OD530) was prepared from five colonies. These stock suspensions were diluted with Yeast Nitrogen Base (YNB) broth to a final concentration of 2.5 × 10^3 CFU/mL. […] Plates were covered and incubated at 35 °C for 24 h without shaking.

[9] = system: Cryptococcus neoformans ATCC 208821; assay: CO-ADD MIC, antifungal assay (CLSI); type: cell-based; conditions: Yeast Nitrogen Base broth, 24 h 35 °C, by CO-ADD
Protocol: as §5

E. coli ATCC 25922 = assay: CO-ADD MIC, broth microdilution (CLSI); type: cell-based, Escherichia coli; conditions: Mueller–Hinton broth, 5 × 10^5 CFU/mL, 18 h 37 °C, by CO-ADD
Text: as §3, §4

S. aureus ATCC 6538 = conditions: for LD90: CFU assay, 10 mM NaP
[10] = system: Burkholderia cepacia ATCC 25416; conditions: CFU assay, 10 mM NaP
[11] = system: Clostridium perfringens ATCC 13124; conditions: CFU assay, 10 mM NaP, pH 7.3, 0.25% glucose
[12] = system: Klebsiella pneumonia ATCC 700603; conditions: MDR strain; CLSI, Mueller–Hinton broth, 5 × 10^5 CFU/mL, 18 h 37 °C, by CO-ADD
[13] = system: Staphylococcus aureus ATCC 43300; conditions: MRSA; CLSI, Mueller–Hinton broth, 5 × 10^5 CFU/mL, 18 h 37 °C, by CO-ADD

## QSGTRHETSSGGQAASSQEQAR [FLG1652-1674]
[1]
  LD90: > 150 µg/mL
  LD100: > 150 µg/mL
P. aeruginosa ATCC 10145; pH 5.5, 0.25% glucose
  LD90: > 300 µg/mL
  LD100: > 300 µg/mL

## HTQNSSSGQAASSHEQAR [FLG684-701]
[1]
  LD90: > 150 µg/mL
  LD100: > 150 µg/mL
P. aeruginosa ATCC 10145; pH 5.5, 0.25% glucose
  LD90: > 300 µg/mL
  LD100: > 300 µg/mL

## CCCCCCCCCCCCCCCC(=O)NCC(=O)N[C@@H](CCCNC(=N)N)C(=O)N[C@@H](CCCNC(=N)N)C(=O)NCC(=O)N[C@@H](CO)C(=O)NCC(=O)N[C@@H](CC(C)C)C(=O)NCC(=O)N[C@@H](CCCNC(=N)N)C(=O)N[C@@H](CO)C(=O)N[C@@H](CO)C(=O)N[C@@H](CO)C(=O)N[C@@H](CCCNC(=N)N)C(=O)NCC(=O)N[C@@H](CCC(N)=O)C(=O)N[C@@H](CCCNC(=N)N)C(=O)NCC(=O)N[C@@H](CO)C(=O)NCC(=O)N[C@@H](CO)C(=O)NCC(=O)N[C@@H](CCCNC(=N)N)C(=O)O [Pal-HR 1-18-HR] (Palmitoyl-GRRGSGLGRSSSRGQRGSGSGR-OH)
[2]
  LD90: 9.38 µg/mL
[3]
  LD90: 0.15 µg/mL
[4]
  LD90: 37.5 µg/mL
[5]
  LD90: 1.18 µg/mL
[6]
  Minimal inhibitory concentration (MIC): 1 µg/mL (≈ 0.414 µM)
[7]
  Minimal inhibitory concentration (MIC): 16 µg/mL (≈ 6.63 µM)
[8]
  Minimal inhibitory concentration (MIC): >32 µg/mL
[9]
  Minimal inhibitory concentration (MIC): 1 µg/mL (≈ 0.414 µM)
E. coli ATCC 25922
  Minimal inhibitory concentration (MIC): 4 µg/mL (≈ 1.66 µM)
P. aeruginosa ATCC 10145; pH 7.3, 1% TSB
  LD90: 1.18 µg/mL
S. aureus ATCC 6538; pH 5.5, 0.25% glucose
  LD90: 0.3 µg/mL
S. aureus ATCC 6538; pH 7.3, 1% TSB
  LD90: 1.18 µg/mL
[10]; pH 7.3, 0.25% glucose
  LD90: 75 µg/mL
[10]; pH 7.3, 1% TSB
  LD90: 75 µg/mL
[11]
  LD90: 4.7 µg/mL
[12]
  Minimal inhibitory concentration (MIC): >32 µg/mL
[13]
  Minimal inhibitory concentration (MIC): 8 µg/mL (≈ 3.31 µM)

## QGSHHEQSVNRSGHSGSHHSHTTSQGR [FLG528-554]
[1]
  LD90: > 150 µg/mL
  LD100: > 150 µg/mL
P. aeruginosa ATCC 10145; pH 5.5, 0.25% glucose
  LD90: 0.15 µg/mL
  LD100: 0.59 µg/mL
S. aureus ATCC 6538; at concentrations <60 µM (data not shown)
  activity against S. aureus ATCC 6538: lack activity
